Test results taken from ChEMBL document CHEMBL3507680, “University of Dundee, Gates Library screen for HepG2 cell viability”.

Experiment: Human HepG2 cell viability assay in 384 well format
Type: toxicity, cell-based
Parameters: dose 125 nL, time 70.5 hour; concentration not given beside the values
Conditions: HepG2 cells, read-out: Inhibition

Compound | cytotoxicity at 70.5 h
CCN(C(=O)c1c(Cl)cnn1CC)C(C)C(N)=O (stereo not drawn) | -11.3%
CC(C)N1C(=O)CO[C@H]2CCN(C(=O)c3ccc4c(c3)CCC4)CC[C@@H]21 | -3.57%
CCOCc1nc2c(c(NC(CC)c3ccnn3C)n1)CCNCC2 (stereo not drawn) | 0.295%
Cc1cccc(C(=O)N2CCCC(c3nccn3Cc3cscn3)C2)n1 (stereo not drawn) | -5.05%
COCc1nn(CC2CC2)c2c1CN(C(=O)c1ccno1)CC2 | -3.21%
Cn1cccc1C(=O)N[C@@H]1CN(Cc2cccs2)[C@@H]2COC[C@@H]21 | -3.46%
CC(O)CN(CC(=O)NC(=O)NCC(F)(F)F)c1ccccc1 (stereo not drawn) | -11.1%
O=S(=O)(Nc1cnn(C2CCOCC2)c1)c1ccc(Br)cc1 | -5.21%
CCS(=O)(=O)N1CCC(Nc2c(Cl)cccc2C#N)CC1 | -90.6%
CCOc1ccccc1C(=O)N1CCCC(O)(CN(C)C)C1 (stereo not drawn) | 11.6%
Cc1nc(NC(=O)CN2C(=O)c3ccccc3NC2C(C)C)sc1C (stereo not drawn) | -11.4%
Cc1ccc(CCNC(=O)NC2CCN(CC(F)(F)F)C2=O)cn1 (stereo not drawn) | -5.39%
Cc1ccnc(C2(C)CCCN2S(=O)(=O)c2cccnc2)n1 (stereo not drawn) | -3.08%
COc1ccc(C(C)=O)cc1CN1CCn2cccc2C1C (stereo not drawn) | -6.89%
Cn1cc(C#N)cc1C(=O)N1CCC2(CCCN(CC3CCC3)C2=O)C1 (stereo not drawn) | -4.46%
CC[C@@]1(O)CCN(c2ncc(Cl)cc2C(F)(F)F)C[C@H]1O | 20.8%
CN1CC2(CCN(C(=O)c3coc4c3C(=O)CCC4)C2)OC1=O (stereo not drawn) | -6.28%
CC(C)n1cnnc1CN(C)C(=O)Cn1ccc2ccccc2c1=O | -8.95%
CC(NC(=O)Nc1cccnc1N1CCCC1)c1ccccn1 (stereo not drawn) | -17.8%
Cc1ccc(OCC(C)NS(C)(=O)=O)cc1 (stereo not drawn) | -4.31%
COc1ccc2cc(CN(C)C(C)c3nc(C(C)(C)C)no3)ccc2c1 (stereo not drawn) | -5.37%
CC(=O)N1CCCC1c1nc(N(C)C)ncc1-c1ccccc1 (stereo not drawn) | 23.2%
CN(CCO)c1ncc(-c2ccc(NC(=O)[C@@H]3CCCCN3)cc2)cn1 | -1.72%

Compound | cytotoxicity at 70.5 h
CC1=N[C@@]2(CC[C@@H]3CN(CC4CC4)C[C@@H]32)C(=O)N1CC(C)C | -15.3%
CCNc1cc2c(nn1)CCN(C(=O)c1ccnc(C)n1)C2 | -2.85%
CC(C)N(C)C(=O)C1CCN(Cc2cc3c(cc2O)CCC3)CC1 | -5.17%
COc1cc(F)ccc1-c1cnc(N)cn1 | -13.6%
CCOc1ccc(Cl)c(C(=O)N2CCCC(c3cc(C)[nH]n3)C2)n1 (stereo not drawn) | -2.21%
Cc1ccc(CN2CC[C@H](c3nnc(COc4ccc(F)cc4)o3)C2)o1 | -6.96%
CCc1cnc(C)nc1NCCSc1nnc(C)n1CC | 0.501%
COC(=O)c1cc2c(OC)c(OC)c(OC)cc2[nH]1 | -19.4%
Cc1ccc(OCC(=O)N(C)Cc2cccc(F)c2)cn1 | -3.84%
CCOc1ccc(C(=O)N2C[C@H]3CC[C@@H]2CN(C(=O)C2CCC2)C3)cc1 | -0.418%
Cc1noc(C)c1CC(=O)OCc1nc(N)c2ccccc2n1 | -3%
CC(C)CCn1cc(C(C(=O)O)N2CCSCC2)cn1 (stereo not drawn) | -12.4%
Cn1c(=O)c2c(n3ncnc13)NC(=O)CC2c1cccc(F)c1 (stereo not drawn) | -11.8%
Cc1cc2ncn(C(=O)N3CCOCC3)c2cc1C | -5.67%
CS(=O)(=O)N1C[C@@H]2CCN(C(=O)c3cscn3)[C@@H]2C1 | -2.23%
CCN(Cc1noc(C)n1)C(=O)CCc1scnc1C | 3.89%
Cc1cccnc1CNCC1(O)CCCN(Cc2ccc(F)cc2)C1=O (stereo not drawn) | 23.1%
Cc1cc(CCC(=O)N2CCOCC2)ccc1Br | -5.28%
O=C(Nc1ccc(CCN2CCOCC2)cc1)C1CCC1 | -3.21%
CN(CC1COc2ccccc2O1)C(=O)CCn1cncn1 (stereo not drawn) | -9.47%
CN(C)C(=O)CCS(=O)(=O)Cc1coc(-c2ccc(F)cc2)n1 | -16.4%
c1ccc(-c2nc(CNC3CCc4ncnn4C3)no2)cc1 (stereo not drawn) | -3.91%
CCOC(=O)C1CCCN(Cc2cc(C#N)n(C)c2C)C1 (stereo not drawn) | -11.7%

Compound | cytotoxicity at 70.5 h
COCCNC(=O)C1CCCN(c2ccc3nncn3n2)C1 (stereo not drawn) | 9.49%
CC(C)c1nccn1-c1cccc(C2CCCN2S(=O)(=O)N(C)C)n1 (stereo not drawn) | 0.791%
Cc1cccn2cc(CN3CCCC(c4ccn[nH]4)C3)nc12 (stereo not drawn) | 0.654%
CCOc1cc(CN2CCCC2)ccc1Oc1cccc(C#N)n1 | -1.2%
Cc1cc(C2CCCN(Cc3nc(Cc4ccccc4)no3)C2)n[nH]1 (stereo not drawn) | -10.9%
CC(NS(=O)(=O)N(C)C)c1cccc(-n2cccn2)c1 (stereo not drawn) | -3.97%
Cc1cnc(CC2COCCN(C(=O)CN3CCOCC3)C2)cn1 (stereo not drawn) | -4.65%
O=C(Nc1ccccc1F)N1CCN(Cc2noc(C3CC3)n2)CC1 | -10.2%
Cc1cnn(CCNCc2nnc(-c3ccc(F)cc3)o2)c1 | -10.4%
Cc1cnn(CC2CCCN2CCc2nc3ccccc3c(=O)[nH]2)c1 (stereo not drawn) | 0.164%
COCCNCc1cc2cc(C)cc(C)c2[nH]c1=O | -4.55%
CC(C)c1nc(C2CCCN2CCS(=O)(=O)c2ccccc2)no1 (stereo not drawn) | 2.5%
CCc1ccc(S(=O)(=O)Nc2ccncc2)s1 | -5.81%
CS(=O)(=O)c1ncc(CN2CCCC(C(N)=O)C2)n1CC1CCCCC1 (stereo not drawn) | -1.8%
CN(C)C(=O)N1CC2(CCN(S(C)(=O)=O)CC2)c2ccccc21 | -1.58%
Cc1nc(CN2CCN(c3ccc(SC(C)C)nn3)CC2)cs1 | 11.1%
Nc1nccnc1C1CN(C(=O)COc2cccnc2)CCO1 (stereo not drawn) | 6.29%
CC1CCCN(C(=O)c2csc(S(N)(=O)=O)c2)CC1 (stereo not drawn) | -1.03%
CC(C)c1noc(CCCC(=O)N2CCN(C)CC2c2ccccc2)n1 (stereo not drawn) | -8.67%
CCN(CCO)C(=O)Nc1ccc(OCCOC)nc1 | 2.78%
Cn1ncc2c(NCC3CCS(=O)(=O)C3)nc(-c3ccncc3)nc21 (stereo not drawn) | 21.3%
O=C(CCOc1ccccc1F)N1CCOCC1 | 44.2%
CC(C)NC(=O)c1ccc2c(c1)nc1n2CCN(Cc2ccccc2)C1 | -12.9%

Compound | cytotoxicity at 70.5 h
O=C(NCc1ccccn1)[C@@H]1COC[C@H]2CNC[C@H]21 | -12.9%
COc1cccc(-c2nc3c([nH]2)CCNC3)c1F | -12.1%
CC(=O)NCC(=O)N1CCOC(c2cccc(N)n2)C1 (stereo not drawn) | 15.3%
CS(=O)(=O)C1=C(O)C(=O)N(c2ccccc2)C1c1ccccc1 (stereo not drawn) | -4.58%
CC(C)COC(C)C(=O)NCc1cc(F)cc(F)c1 (stereo not drawn) | -13.3%
COCC1CN(S(=O)(=O)c2cccs2)Cc2ncnn2C1 (stereo not drawn) | -12.8%
Cc1ccc(S(=O)(=O)NC(=O)COc2cccc(C#N)c2)c(C)c1 | 14.4%
Cc1cccc(N2CCN(C(=O)CCc3ccsc3)C(C)C2)n1 (stereo not drawn) | -23.2%
O[C@@H]1CN(CC2CC2)CC[C@H]1N1CCN(c2ccccc2F)CC1 | 0.0849%
O=C(c1ccnnc1)N1C[C@H](OCC2CC2)[C@H]2COC[C@H]21 | -13.5%
COc1ncc(CN2C[C@@H]3C[C@@H](O)CN3C[C@@H]2Cc2ccccc2)cn1 | 18.8%
O=C(c1ccnnc1)N1C[C@@H]2CC[C@H](Oc3cccc(F)c3)[C@@H]2C1 | -0.575%
COc1ccccc1C1=NOC(CC2(C(=O)NCCO)CCOCC2)C1 (stereo not drawn) | 0.737%
Cc1nc(C)n(CC2CN(Cc3cccc4c3OCCO4)CCO2)n1 (stereo not drawn) | 1.12%
Cc1nccn1C1CCCN(C(=O)c2ccc(N(C)C)nn2)C1 (stereo not drawn) | -4.18%
CCn1ccnc1CN1CCCN(C(=O)Cc2ccccc2C)CC1 | -1.08%
CN1N=C(C(=O)N2CCCC(n3cccn3)C2)CCC1=O (stereo not drawn) | -3.66%
CC1COCCN1c1ncnc2sccc12 (stereo not drawn) | 6.87%
CCN(CC)CCCNC(=O)c1nn(CC)cc1Cl | 2.52%
O=C(C1=CCCCC1)N1CCC2(CC1)COC(COc1ccccn1)C2 (stereo not drawn) | -3.14%
CC(C)CN1CCCn2nc(CNC(=O)CN3CCOC3=O)cc2C1 | -7.41%
COCCn1cnc2c(F)cc(Br)cc2c1=O | -3.14%
Cc1cc(C)n(CC(C)CNC(=O)CCc2ccco2)n1 (stereo not drawn) | -6.24%

Compound | cytotoxicity at 70.5 h
Cn1cc(C2CC(=O)NC23CCN(Cc2ccncc2)CC3)cn1 (stereo not drawn) | 13.9%
CCc1nnc2n1CCN(C(=O)c1ccc(C(F)(F)F)nc1C)C2 | -15.4%
CSc1ccccc1CN1C[C@H]2C(=O)N(CC3CC3)C[C@@]2(C(=O)O)C1 | -0.998%
CC(C)c1noc(OCc2cccc(C#N)c2)n1 | -11.8%
Cc1cc(N2CCN(C(=O)c3cccnc3)CC2)nc(C)n1 | -2.72%
O=C(c1ccncc1F)N1CC[C@@H]2CN(c3ncccn3)CCO[C@@H]2C1 | -11.2%
O=C(COc1cccc2c1CCC2=O)NCc1ccccc1F | -2.34%
CNS(=O)(=O)CCCn1nnc(-c2ccc(F)c(C)c2)n1 | -3.63%
COc1ccc(CN2CCC3(CC2)CN(c2ccccn2)CCO3)cc1 | 2.33%
CN(CC(=O)Nc1ccon1)S(=O)(=O)c1cc(Cl)ccc1Cl | 23.9%
Cc1cnc(CN(C)C2CCN(CCc3cnn(C)c3)C2)o1 (stereo not drawn) | -0.678%
Cc1ncsc1C(=O)NCCNC(=O)OC(C)(C)C | -2.69%
CC(=O)Nc1ccc(C(=O)N(C)Cc2cccc(F)c2)s1 | -105%
CCOc1ccc(S(=O)(=O)NCCc2ccc(N(C)C)cc2)cc1C | -3.6%
Cn1cc(C(=O)NCc2cn3c(n2)CN(Cc2ccccn2)CC3)cn1 | -1.02%
COc1ccccc1C(=O)N1CCC(Nc2ccc(C)nn2)CC1 | -8.98%
O=C(Nc1cccnc1)[C@H]1C[C@@H]2CN(C(=O)NC3CCCC3)C[C@H]1O2 | -1.2%
CCCNc1ncc(CN2CCN(C)C(=O)C2C)cn1 (stereo not drawn) | 16%
Cc1scc(C(=O)N2CCC3(CC(=O)NC3=O)C2)c1-c1ccccc1 (stereo not drawn) | -11%
Cc1nnc(CN(C)Cc2ccc(C(=O)Nc3sccc3C#N)cc2)o1 | 0.967%
O=C(NC[C@H]1O[C@H](Cc2cc(-c3ccccn3)on2)CC[C@@H]1O)C1CC1 | -7.04%
